For this data set the following is noted: pampa; pH 5.0; 30.0 min; 50.0 µM.
Molecule `C[C@@H](O)CNC(C)(C)CC(=O)N[C@@H]1CCc2ccccc2N(Cc2ccc(-c3ccccc3-c3nn[nH]n3)cc2)C1=O` returned an apparent permeability (Papp) of 5.85 ×10⁻⁶ cm/s.

For the molecule `COc1ccc(-n2c(C)c(C(C)=O)c3cc(OC(=O)COc4ccccc4)ccc32)cc1`, the Papp is more than 1000 ×10⁻⁶ cm/s.

`CN(C(=O)CSc1nc2ccc(NC(=O)c3ccc(F)cc3)cc2s1)c1ccccc1` returned an apparent permeability (Papp) of 901 ×10⁻⁶ cm/s.

`CCN(CCN(C)C)C(=O)C1CCN(S(=O)(=O)c2c(C)noc2/C=C/c2ccccc2F)CC1` came in with an apparent permeability (Papp) of 565 ×10⁻⁶ cm/s.

Regarding `Cc1ccc(C)c(CN2CCC(CNC(=O)Nc3ccc(Br)cc3F)CC2)c1`, the apparent permeability (Papp) was found to be 979 ×10⁻⁶ cm/s.

On to `Cc1ccc(NC(=O)C(Cc2ccccc2)NS(=O)(=O)c2cccs2)cc1Cl` (stereo not given), for which the Papp was 570 ×10⁻⁶ cm/s. Against the preceding molecule, the Papp is about 1.7-fold lower.

Take `CNC(=O)c1ccc(C)c(-n2c(C)cc(OCc3ccc(F)cc3F)c(Br)c2=O)c1`: the Papp was 627 ×10⁻⁶ cm/s.

In the case of `Oc1ccc(-c2nc(C3CC3)nc3c2CCN(Cc2ccc(F)cc2)CC3)cc1`, the apparent permeability coefficient (Papp) was 421 ×10⁻⁶ cm/s. The Papp values of the last two molecules are within 1.5-fold of each other.

`N#Cc1ccc(C(=O)Nc2ccc(Cl)c(-c3nc4cc(Cl)ccc4o3)c2)c(F)c1` had a Papp of 679 ×10⁻⁶ cm/s.

In turn, `Cc1ccccc1-c1nc(NCc2ccc(-c3cccnc3)cc2)c2ccccc2n1` returned a Papp of more than 1000 ×10⁻⁶ cm/s.

Regarding `COc1cc(Cl)c(C)cc1Nc1c2c(nc3ccccc13)CCC2`, the Papp was more than 1000 ×10⁻⁶ cm/s.

Molecule `O=C(Nc1ccccc1-c1cn2c(CN3CCNCC3)csc2n1)c1cnc2ccccc2n1` yielded an apparent permeability coefficient (Papp) of 342 ×10⁻⁶ cm/s.

For the molecule `O=C(NCCCNc1nc(Nc2cccc(CN3CCOCC3)c2)ncc1C1CC1)C1CCC1`, the apparent permeability (Papp) amounted to 8.82 ×10⁻⁶ cm/s.

The molecule `COc1ccccc1Nc1ccnc(N2CCN(C(=O)c3ccccc3Cl)CC2)n1` showed a Papp of 35.8 ×10⁻⁶ cm/s.

Molecule `NC(=O)Nc1cc(-c2ccc(CN3CCOCC3)cc2)sc1C(N)=O` yielded a Papp of 1.19 ×10⁻⁶ cm/s. This Papp is about 30-fold lower than that of the molecule before.

Molecule `CCS(=O)(=O)c1ncc(N(Cc2ccc(F)cc2)Cc2ccco2)c(C(=O)Nc2cc(C)ccc2C)n1` displayed a Papp of 696 ×10⁻⁶ cm/s.

On to `Cc1ccc(S(=O)(=O)N2CCN(C(=O)c3cc4c(s3)CCC4)CC2)cc1`, for which the Papp was more than 1000 ×10⁻⁶ cm/s.

For the molecule `COc1ccc(-n2nc(C3CCCN(C(=O)c4ccccc4F)C3)[nH]c2=O)cc1` (stereo not given), the Papp is 341 ×10⁻⁶ cm/s.

Molecule `CC(=O)Nc1ccc(CN2CCc3nc(C(C)C)nc(-c4ccc(Cl)cc4)c3CC2)cc1` gave a Papp of 476 ×10⁻⁶ cm/s. This Papp and that of the molecule before are within 1.5-fold of each other.

For `NC(=O)N1CCCC(C(=O)N2CCCN(c3ccc(F)cc3)CC2)C1` (stereo not given), the apparent permeability (Papp) is 96.2 ×10⁻⁶ cm/s.

`CCOc1ccc(C2c3c(oc4ccc(C)cc4c3=O)C(=O)N2CCCN(C)C)cc1` (stereo not given) yielded a Papp of 29.6 ×10⁻⁶ cm/s.

`COc1ccc(-n2nc(C3CCN(C(=O)Cc4ccc(F)cc4)CC3)[nH]c2=O)cc1` returned a Papp of 410 ×10⁻⁶ cm/s.

Turning to `Cc1ccc(C(=O)Nc2ccc3oc(-c4cccnc4)nc3c2)cc1[N+](=O)[O-]`, the apparent permeability (Papp) was determined as 693 ×10⁻⁶ cm/s.

`COc1cccc(CNC(=O)CCCn2nc(C)c3c(C)n(-c4ccc(C)cc4)nc3c2=O)c1OC` returned a Papp of 446 ×10⁻⁶ cm/s.

`CCc1ccc2ncc(C(=O)c3ccc(C)c(C)c3)c(N3CCC(C(N)=O)CC3)c2c1` showed an apparent permeability (Papp) of 653 ×10⁻⁶ cm/s. The Papp values of the last two molecules are within 1.5-fold of each other.

In turn, `O=C(Cc1c[nH]c2ncc(-c3ccc(Cl)cc3)cc12)NCc1cccnc1` displayed a Papp of 818 ×10⁻⁶ cm/s.

As to `C#CCOc1ccc(-c2nnc(Nc3ccc(NC(C)=O)cc3)c3ccccc23)cc1`, the apparent permeability (Papp) came out at 265 ×10⁻⁶ cm/s. Against the preceding molecule, the Papp is about 3.1-fold lower.

As to `COc1cc2cc(CN3CCC(N(C)C)C3)c(-c3cccc(Cl)c3)nc2cc1OC` (stereo not given), the Papp came to 243 ×10⁻⁶ cm/s.

`c1cc(-c2cc(-c3ccncc3)c3cncn3c2)c2cc[nH]c2c1`: the apparent permeability (Papp) stood at 21.7 ×10⁻⁶ cm/s.

As for `COc1ccc(CNC(=O)CCCn2nc(C)c3c(C)n(-c4ccc(C)cc4)nc3c2=O)cc1OC`, the Papp turned out to be 159 ×10⁻⁶ cm/s.

Consider `CC(C)c1ccccc1-c1nc(NCc2ccc(-c3cccnc3)cc2)c2ccccc2n1`, for which the Papp is more than 1000 ×10⁻⁶ cm/s.

The molecule `CCCCOc1ccc(C2c3c(oc4ccc(C)cc4c3=O)C(=O)N2CCCN(C)C)cc1OCC` (stereo not given) registered a Papp of 273 ×10⁻⁶ cm/s.

For the molecule `COc1cc2ncnc(Nc3ccc(Oc4ccccc4)cc3)c2cc1OC`, the Papp turned out to be 981 ×10⁻⁶ cm/s. Compared with the last molecule, the Papp is about 3.6-fold higher.

Molecule `COc1ccc(-n2nc(C3CCCN(C(=O)Cc4ccccn4)C3)[nH]c2=O)cc1` (stereo not given) had a Papp of 71.4 ×10⁻⁶ cm/s. This Papp is about 14-fold lower than that of the molecule before.

For the molecule `CCc1cccc(NC(=O)CSc2nc3ccccc3nc2N2CCCCC2)c1`, the Papp was found to be 351 ×10⁻⁶ cm/s.

Consider `O=C1CCc2cc(S(=O)(=O)Nc3ccc(F)c(Cl)c3)ccc2N1`, for which the Papp was 663 ×10⁻⁶ cm/s.

For the molecule `CCOC(=O)N1CCN(Cc2nc3cc(NC(=O)c4ccc(OC)cc4)ccc3n2C(C)C)CC1`, the apparent permeability (Papp) worked out at 808 ×10⁻⁶ cm/s.

In turn, `Cn1cnc2c(F)c(Nc3ccc(Br)cc3Cl)c(C(=O)NOCCO)cc21` came in with an apparent permeability (Papp) of 151 ×10⁻⁶ cm/s.

Molecule `CCCCOc1ccc(CNC(=O)c2cc3n(n2)CCCN(Cc2ccc(C)cc2)C3=O)cc1` displayed an apparent permeability (Papp) of 867 ×10⁻⁶ cm/s.

In the case of `CCNC(=O)c1coc(COc2ccc3c(c2)C(c2ccc(F)cc2)N(C(=O)CC(C)C)CC3)n1` (stereo not given), the Papp was more than 1000 ×10⁻⁶ cm/s.

For orientation: Papp means a coefficient for how fast a substance crosses the barrier.

For the origin of these results see PubChem BioAssay AID1645871.
